Measurements as given in US11382914B2, “Usage and dosage of therapeutic agents for endometriosis” (KISSEI PHARMACEUTICAL CO., LTD., priority 2016, dated 2022).
Read-outs that look alike come from different tables or passages of the source.

Columns and labels:
[1] = long-term study; cited from earlier work
[2] = system: patients with endometriosis; conditions: for Changes in average NRS for pelvic pain (regardless of menstruation) between the pre-treatment period and the time of the final assessment during treatment: oral once a day for 12 weeks
Procedure: Clinical Trial 1 in Patients with Endometriosis (Double-Blind Parallel-Group Comparison Study)
To 107 patients with endometriosis, Compound 2 at a dose of 50 mg (29 patients), 100 mg (26 patients) or 200 mg (28 patients) or a placebo (24 patients) was orally administered after breakfast once a day for 12 weeks. These groups are hereinafter referred to as a 50-mg administration group, a 100-mg administration group, a 200-mg administration group, and a placebo group. The administration was started from the second to fifth days of menstruation.
As evaluation scales for safety, for example, the occurrence of an adverse event, the occurrence of a side effect, and vaginal bleeding were evaluated.

[3] = system: patients with endometriosis; conditions: for Changes in average NRS for pelvic pain (regardless of menstruation) between the pre-treatment period and the time of final assessment during the treatment period: oral once a day for 8 weeks
Procedure: Clinical Trial 2 in Patients with Endometriosis (Randomized Non Blind Parallel-Group Comparison Study)
To 21 patients with endometriosis, Compound 2 was administered orally at a dose of 75 mg (11 patients) or 150 mg (10 patients) after breakfast once a day for 8 weeks. These groups are hereinafter referred to as a 75-mg administration group and a 150-mg administration group. The administration was started from the second to fifth days of menstruation.

Compound: C[C@]12CCC3=C4CCC(=O)C=C4CC[C@H]3[C@@H]1CC[C@@]2(O)CC#N [Dienogest, dienogest]
- Incidence of atypical genital bleeding as a side effect [1]: 71.9%

Compound: 3-[2-fluoro-5-(2,3-difluoro-6-methoxybenzyloxy)-4-methoxyphenyl]-2,4-dioxo-1,2,3,4-tetrahydrothieno[3,4-d]pyrimidine-5-carboxylic acid choline salt [Compound 2]
- Percentage of patients who had menstruation during treatment (Yes) ([2]; 50 mg): 72.4%
- Percentage of patients who had no menstruation during treatment (No) ([2]; 50 mg): 27.6%
- Percentage of patients who had menstruation during treatment (Yes) ([2]; 100 mg): 26.9%
- Percentage of patients who had no menstruation during treatment (No) ([2]; 100 mg): 73.1%
- Percentage of patients who had menstruation during treatment (Yes) ([2]; 200 mg): 3.6%
- Percentage of patients who had no menstruation during treatment (No) ([2]; 200 mg): 96.4%
- Number of cases where side effects associated with hypoestrogenism (hot flashes, headache, dizziness, hyperhidrosis) were developed ([2]; 50-mg administration group (29 patients)): 9
- Changes in average NRS for pelvic pain (regardless of menstruation) between the pre-treatment period and the time of the final assessment during treatment ([2]; 50-mg administration group): −1.13
- E2 concentrations during treatment ([2]; 100-mg administration group): lower than 20 pg/mL
- Number of cases where side effects associated with hypoestrogenism (hot flashes, headache, dizziness, hyperhidrosis) were developed ([2]; 100-mg administration group (26 patients)): 12
- Changes in average NRS for pelvic pain (regardless of menstruation) between the pre-treatment period and the time of the final assessment during treatment ([2]; 100-mg administration group): −1.27
- E2 concentrations during treatment ([2]; 200-mg administration group): lower than 20 pg/mL
- Number of cases where side effects associated with hypoestrogenism (hot flashes, headache, dizziness, hyperhidrosis) were developed ([2]; 200-mg administration group (28 patients)): 28
- Changes in average NRS for pelvic pain (regardless of menstruation) between the pre-treatment period and the time of the final assessment during treatment ([2]; 200-mg administration group): −1.33
- E2 secretion during treatment ([2]; all groups (50, 100, 200 mg)): Suppression of E2 secretion was observed
- Improvement of average NRS for pelvic pain as compared to the placebo group ([2]; all groups (50, 100, 200 mg) vs placebo): Significant improvements
- Temporal pain, observations by others, use rate of an analgesic agent, sizes of an ovarian chocolate cyst and the uterus, as compared to the placebo group ([2]; groups administered 50, 100, 200 mg vs placebo): improved
- Occurrence of side effects associated with hypoestrogenism ([2]; groups with E2 concentration of 20 pg/mL and/or more during treatment): 28.2%
- Occurrence of side effects associated with hypoestrogenism ([2]; groups with E2 concentration of less than 20 pg/mL during treatment): 54.8%
- Changes in average NRS for pelvic pain (regardless of menstruation) between the pre-treatment period and the time of final assessment during the treatment period ([3]; 75-mg administration group): −0.94
- Median E2 concentrations during treatment ([3]; 75-mg administration group, week 4): 35 pg/mL
- Median E2 concentrations during treatment ([3]; 75-mg administration group, week 8): 24 pg/mL
- Changes in average NRS for pelvic pain (regardless of menstruation) between the pre-treatment period and the time of final assessment during the treatment period ([3]; 150-mg administration group): −1.68
- Median E2 concentrations during treatment ([3]; 150-mg administration group, week 4): 10 pg/mL
- Median E2 concentrations during treatment ([3]; 150-mg administration group, week 8): 10 pg/mL
- Improvement of average NRS for pelvic pain ([3]; all groups (75, 150 mg)): tendency of improvement
